The subject of the assay is adult rat ventricular cardiomyocytes (ARVC). As to the kind of experiment: Long-term culture survival of adult rat cardiomyocytes in normal or high glucose. Type of assay: cell-based. The following applies: normal and hyperglycemic media, beyond day 14. The source says:
Cardiomyocytes isolated from adult rats were exposed to ANXAsp (FIG. 3C and FIG. 3D) or the N-terminal 25mer Ac2-26 (FIG. 3E and FIG. 3F) in either normal glucose (NG) or high glucose (HG), respectively, for 26 days, Untreated control cells in normoglycemic and hyperglycemic media are presented in FIG. 3A and FIG. 3B,
Cardiomyocytes isolated from adult rat in both normal and hyperglycemic culture media were exposed directly to ANXA1sp. […] The cardioprotective effects of ANXA1sp was further examined in hyperglycemic exacerbation of myocardial injury due to simulated ischemia/reperfusion in vitro. Adult rat ventricular cardiomyocytes (ARVCs) were treated with/without either ANXA1sp or Ac2-26 in both normo- and hyperglycemic culture media for 24 hours. Cells were washed with deoxygenated glucose-free DMEM medium in an anaerobic chamber that filtrated a gas mixture of 5% CO2-10% H2-85% N2 and incubated for 2 hours. After oxygen/glucose deprivation (OGD), cells were cultured under normoxic conditions in a 5% CO2 incubator for 24 hours. Cells without OGD were used as a positive control. Cell death was determined by trypan blue exclusive staining. Cells were counted in triplicate wells and in eight random fields in each well.

No end group written: not given here.

“Ac-Ala-Met-Val-Ser-Glu-Phe-Leu-Lys-Gln-Ala-Trp-Phe-Ile-Glu-Asn-Glu-Glu-Gln-Glu-Tyr-Val-Gln-Tyr-Val-Lys (Ac-AMVSEFLKQAWFIENEEQEYVQYVK) [Ac2-26, commercial annexin A1 N-terminal 25mer peptide, reference compound]”: the rod-shaped cardiomyocytes found entry is on record as “no rod-shaped cardiomyocytes were found”.
